Results from patent publication US20040235908A1, “3,4-Di-substituted cyclobutene-1,2-diones as CXC-chemokine receptor antagonists” (Schering Corporation, priority 2001, published 2004).

Target: T1, hCXCR2 (Homo sapiens, UniProt P25025)
T1 construct: purchased Biosignal; host or cells: CHO cells overexpressing hCXCR2 (membrane preparation)
T1 sequence (P25025 1-360): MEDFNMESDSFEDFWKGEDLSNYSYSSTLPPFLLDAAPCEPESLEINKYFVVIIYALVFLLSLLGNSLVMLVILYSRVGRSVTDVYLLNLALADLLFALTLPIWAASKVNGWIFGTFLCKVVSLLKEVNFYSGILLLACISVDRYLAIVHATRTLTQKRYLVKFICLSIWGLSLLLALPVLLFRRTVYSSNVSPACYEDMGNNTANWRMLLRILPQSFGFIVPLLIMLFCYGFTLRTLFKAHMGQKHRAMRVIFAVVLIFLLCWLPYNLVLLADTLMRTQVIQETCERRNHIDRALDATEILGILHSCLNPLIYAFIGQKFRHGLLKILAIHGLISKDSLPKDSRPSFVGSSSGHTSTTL
Assay: CXCR2 SPA receptor binding assay
Settings: hCXCR2-CHO overexpressing membranes, [125I]-IL-8 ligand 0.1 nM
Protocol: For each well of a 96 well plate, a reaction mixture of 4 μg hCXCR2-CHO overexpressing membranes (Biosignal) and 200 μg/well WGA-SPA beads (Amersham) in 100 μl was prepared in CXCR2 assay buffer (25 mM HEPES, pH 7.4, 2 mM CaCl2, 1 mM MgCl2). A 0.4 nM stock of ligand, [125I]-IL-8 (NEN), was prepared in the CXCR2 assay buffer. […] stock solutions of test compounds were prepared in DMSO (Sigma). A 6× stock solution of GRO-α (R&D) was prepared in CXCR2 assay buffer. The above solutions were added to a 96-well assay plate (PerkinElmer or Coming) as follows: 10 μl test compound or DMSO, 40 ul CXCR2 assay buffer or GRO-α stock, 100 μl of reaction mixture, 50 μl of ligand stock (Final [Ligand]=0.1 nM). When 40× stock solutions of test compounds in DMSO were prepared, then the above protocol was used except instead 5 μl test compound or DMSO and 45 μl CXCR2 assay buffer were used. The assay plates were shaken for 5 minutes on a plate shaker, then incubated for 2-8 hours before cpm/well were determined in Microbeta Trilux counter (PerkinElmer). % Inhibition of total binding minus non-specific binding (250 nM Gro-α or 50 μM antagonist) was determined and IC50 values calculated.

IC50 [nM] | SMILES
10 | O=C(c1cccc(Nc2c(Nc3ccccc3)c(=O)c2=O)c1O)N1CCOCC1 [Example 45]
28 | CC(C)c1ccccc1Nc1c(Nc2cccc(C(=O)N(C)C)c2O)c(=O)c1=O [Example 64]
